Results: US9408871B2, “Methods for inhibiting complement activation and uses thereof” (THE UNIVERSITY OF BRITISH COLUMBIA, priority 2013, dated 2016)

Test system: choroidal neovascularization
Test: experimental laser-induced choroidal neovascularization (CNV) model, retina whole mounts
Format: in vivo
Conditions: rat, intravitreal injection 10′ after laser, final estimated concentration 200 μM, 5 days
Procedure: Eleven-week-old female Long Even (LE) rats (Charles River Laboratory, Wilmington, Mass.) weighing 256 to 315 g were used. The animals were handled in accordance with institutional guidelines and the ARVO Statement for the Use of Animals in Ophthalmic and Vision Research. The rats were anesthetized by intramuscular injection of a 1 mL/kg mixture (1:1) of ketamine hydrochloride (40 mg/kg) and xylazine hydrochloride (10 mg/ml), and their pupils were dilated with tropicamide (0.5% Mydrin). Experimental choroidal neovascularization (CNV) was created as described previously (Takehana et al., Invest Ophthalmol Vis Sci, 1999, 40 (2):459-66). […]
After laser treatment, under anesthesia, intravitreal injections were performed on a lasered eye under a dissecting microscope (Stereo dissection microscope, SMZ 1000; Nikon, Tokyo, Japan). […] After the procedure, animals were monitored in a recovery enclosure until they resumed baseline normal activity levels. […]
Each eye cup flatmount preparation was analyzed using a confocal laser-scanning microscope (Zeiss-LSM 510 META). […] Intensity and size of GSL-IB4 and C5b-9 immunohistochemistry were analyzed using image-processing and image-analysis software Image J 1.37 (developed by Wayne Rasband, National Institute of Health, Bethesda, Md., USA). […]

Structure (SMILES): O=P(O)(O)O [P1, Orthophosphate]
- neovascularization and deposition of MAC on retina after laser injury: is not protective
